Experimental data taken from US20230091221A1, “PHARMACEUTICAL COMPOSITION” (Chugai Seiyaku Kabushiki Kaisha, priority 2017, published 2023).

How the values were obtained:
Assay type in all cases: in vivo
[1] = system: CD8-positive T cells in peripheral blood; assay: Number of CD8-positive T cells in peripheral blood in FM3A syngeneic mouse model (flow cytometry); details: day 8; irinotecan 250 mg/kg ip once; P<0.05, Wilcoxon Signed-Rank Test
Method: On day 8 of administration, peripheral blood was collected, CD8-positive T cells were measured by flow cytometry (FIG. 2).

[2] = system: CD8-positive T cells in tumor; assay: CD8, CD69 or Ki-67-positive tumor-infiltrating lymphocytes in FM3A syngeneic mouse model (flow cytometry); details: day 8, irinotecan 250 mg/kg ip once
Text: On day 8 of administration, tumors were collected, and then cells were dissociated using a gentleMACS (Trademark) Octo Dissociator, washed, and then used for flow cytometry, thereby quantitatively determining CD8, CD69 or Ki-67-positive tumor-infiltrating lymphocytes (TIL) (FIG. 3).

[3] = system: Foxp3-positive CD4-positive regulatory T cells in tumor; assay: Foxp3-positive CD4-positive regulatory T cells in tumor in FM3A syngeneic mouse model (flow cytometry); details: day 8; irinotecan 250 mg/kg ip once
Text: On day 8 of administration, tumors were collected, and then cells were dissociated using a gentleMACS (Trademark) Octo Dissociator, washed, and then used for flow cytometry, thereby measuring Foxp3-positive CD4-positive regulatory T cells by flow cytometry (FIG. 4).

CCc1c2c(nc3ccc(OC(=O)N4CCC(N5CCCCC5)CC4)cc13)-c1cc3c(c(=O)n1C2)COC(=O)[C@]3(O)CC [irinotecan]
number of CD8-positive T cells in peripheral blood versus solvent administration group [1]: significantly lower
CD8-positive T cells in lymph nodes compared with the solvent administration group (FIG. 3A) [2]: not found to exhibit any significant decrease
CD69-positive CD8-positive T cells among tumor cells compared with the solvent administration group (FIG. 3B) [2]: not found to exhibit any significant decrease
Ki-67-positive CD8-positive T cells in tumors compared with the solvent administration group (FIG. 3C) ([2]; 10F.9G2 10 mg/kg ip 3 times a week): significant increases
Foxp3-positive CD4-positive regulatory T cells in tumors versus solvent administration group [3]: significantly lower
